Laboratory results published in PMC9519446, “Discovery of an Orally Active Benzoxaborole Prodrug Effective in the Treatment of Chagas Disease in Non-human Primates” (Nature microbiology, 2022).
“And” between values parts separate entries of the source, which are not always exact repeats. Equal values may be shown once. Read-outs that look alike come from different tables or passages of the source.

What was measured:
[1] = system: T. cruzi CL strain in Vero cells; test: RNA-seq: parasite mRNA relative to host cell (Vero) mRNA; type: cell-based, Trypanosoma cruzi
Procedure: The drug concentration used for treatment was set at 5 times the IC50. Samples were collected at several time points for RNA extraction as previously described. rRNA-depleted RNA library construction and RNA sequencing using Illumina Nextseq 75PE was carried out by Georgia Genomics and Bioinformatics Core (GGBC, University of Georgia, Georgia). […] The mapping rate was quantified by HTseq v0.6.1 [51].

T. cruzi = conditions: cited from earlier work
T. cruzi Brazil strain [2] = system: T. cruzi Brazil strain; design: method as in PMID 23945371; conditions: cited from earlier work
[3] = High dose 7-day toxicology study with exposure; conditions: 7-day toxicology studies / rats
[4] = system: broad array of mammalian enzymes, receptors and ion channels; test: Preliminary safety pharmacology panel; type: binding
[5] = system: CPSF3-OE T. cruzi intracellular amastigotes; test: microbe, parasite or virus in culture; type: cell-based; conditions: Trypanosoma cruzi, read-out: CPSF3-OE IC50, intracellular amastigotes
Procedure: (§1) The in vitro anti-T. cruzi amastiogote activity assay was performed and optimized based on the protocol described previously. The change in tdTomato fluorescence intensity was determined as a measurement of growth over 72 hours of culture. For assaying drug effects on extracellular amastigotes, trypomastigotes were collected from infected Vero cell cultures and converted in acidic media as previously described. Amastigotes (50,000/well) were incubated with 2-fold serial dilutions of compounds for 48 hours. The ATP production was used as an indication of growth in this case, and was measured by ATPlite Luminescence ATP Detection Assay System (PerkinElmer). Both fluorescence and luminescence were read using a BioTek Synergy Hybrid Multi-Mode reader equipped with the software Gene5 v 2.0 (BioTek). The dose-response curve was generated by […] analysis with GraphPad Prism v9.4.0 (GraphPad Software).
The CPSF3 gene was amplified using primers ‘[…]’ and ‘[…]’, and integrated into the pTrex vector [47] by NEBuilder HiFi DNA assembly (New England Biolabs). The construct of pTrex-CPSF was then transfected into Brazil tdTomato epimastigotes and selected by 60ug/ml blasticidin.
To confirm the CPSF overexpression in the selected transfectants, RNA was extracted as previously described and converted to cDNA using SuperScript Reverse Transcriptase (Invitrogen). Quantitative PCR reactions were performed in triplicate on the C1000 Touch Bio-Rad CFX96 real-time PCR detection system for CPSF using primer sets CPSF-1 (5'-[…]-3' and 5'-[…]-3') and CPSF-2 (5'-[…]-3' and 5'-[…]-3') in both control and CPSF over-expressing parasites, and the expression level was normalized to tubulin which was amplified using primers: ‘[…]’ and ‘[…]’.

[6] = system: T. cruzi intracellular amastigotes; test: In vitro anti-T. cruzi intracellular amastigote growth inhibition assay (tdTomato fluorescence over 72 hours, Vero cells); type: cell-based, Trypanosoma cruzi; conditions: Trypanosoma cruzi, Vero
Procedure: as §1

[7] = system: TcCBP KO T. cruzi intracellular amastigotes; test: microbe, parasite or virus in culture; type: cell-based; conditions: Trypanosoma cruzi, read-out: TcCBP KO IC50
Procedure: as §1
The CBPs knockout was produced using ribonucleoprotein (RNP) complexes as previously described. Briefly, Brazil tdTomato strain epimastigotes were electroporated with RNP complexes containing SaCas9 and an sgRNA targeting CBP gene TcBrA4_0048170, plus a repair template containing stop codons in all three reading frames and the M13 sequence for use as a PCR anchor. The sgRNA targeted the ‘[…]” sequence. After 2 days of recovery, single-cell clones were derived by depositing epimastigotes into a 96-well plate at a density of 0.5 cell/well by using a MoFlo Astrios EQ cell sorter (Beckman Coulter). DNA isolation was performed for clones, and primer pair of 5’-[…]-3’ and 5’- […] -3’ was used for amplifying the wild type allele, while primer pair of M13-F: 5’- […] -3’ and 5’- […] -3’ was used for amplifying the mutant allele.

T. cruzi Brazil strain [8] = test: Mouse cure assays (daily oral treatment, immunosuppression, qPCR of skeletal muscle, blood microscopy, hemoculture); type: in vivo, C57BL/6 mice; conditions: individual mice
Procedure: Male or female C57BL/6 mice were intraperitoneally infected with 10^4 trypomastigotes of the Brazil strain. Mouse infection was confirmed at 25-30 dpi by detection of CD8^+ T cells specific against the T. cruzi TSKb20 peptide in blood. Compounds resuspended in 1% carboxymethyl cellulose and 0.1% Tween 80, were administered daily by gavage at the specified concentrations. In order to optimally detect persistent infection, immune responses in the mice were suppressed by intraperitoneal injection of four doses of cyclophosphamide every 2-3 days (200 mg/kg/day), beginning one week after the end of therapeutic treatment. At the end of the immunosuppression regimen, peripheral blood was checked under light microscope for parasites and cultured in LDNT media. Mouse skeletal muscle samples were obtained at the end of the immunosuppression and processed for T. cruzi-DNA detection by qPCR as previously described.

[9] = system: representative cytochrome P450 enzymes; test: Cytochrome P450 inhibition; type: in vitro ADME; conditions: 10 uM
[10] = In vitro micronucleus study; type: cell-based
[11] = in vivo
[12] = in vitro, Fig. 1a, Extended Data Fig. 1a, read-out: T. cruzi IC50

O=C(Cn1ccnc1[N+](=O)[O-])NCc1ccccc1 [benznidazole, reference compound]
RNA-seq reads mapped to African green monkey ([1]; 0hpt): 52 | RNA-seq reads mapped to T.cruzi CL Brener ([1]; 0hpt): 17 | RNA-seq reads unmapped ([1]; 0hpt): 31 | RNA-seq reads mapped to African green monkey ([1]; 12hpt): 61 | RNA-seq reads mapped to T.cruzi CL Brener ([1]; 12hpt): 14 | RNA-seq reads unmapped ([1]; 12hpt): 25 | RNA-seq reads mapped to African green monkey ([1]; 24hpt): 62 | RNA-seq reads mapped to T.cruzi CL Brener ([1]; 24hpt): 12 | RNA-seq reads unmapped ([1]; 24hpt): 27 | failures in treatment trial (T. cruzi; T. cruzi-infected NHPs, ref Tarleton, et al., in preparation): > 60% | cure rate (T. cruzi; cyno macaques, ref unpublished result of the authors): ~ 30% | cure with 20 days of treatment (T. cruzi Brazil strain [2]; mice): only partially effective in generating cure

Cc1c(C(=O)N[C@H](C(=O)OCc2ccc(F)cc2)C(C)(C)O)ccc2c1B(O)OC2 [AN14817]
dose proportionality of exposure [3]: non-dose proportional exposure | affinity for mammalian enzymes, receptors and ion channels [4]: little to no affinity | IC50 [5]: 24.8 nM | activity at 0.00407 µM ([6]; 72 h, read-out: % of maximum, WT, [uM] -2.39 [sic], single replicates): 79% | IC50 ([6]; read-out: WT IC50, WT intracellular amastigotes, control of CPSF3-OE comparison): 6.3 nM | IC50 ([6]; read-out: WT IC50, WT intracellular amastigotes, control of TcCBP KO comparison): 6.3 nM | IC50 [6, 12]: 12 nM | IC50 [7]: 2200 nM | genotoxicity, Ames (Ames study): non-genotoxic | Parasite equivalent/ 50 ng of DNA of skeletal muscle (T. cruzi Brazil strain [8]; Fig. 3b, mice treated for 40 days): 0.12 Parasite equivalent/ 50 ng of DNA and 0.09 Parasite equivalent/ 50 ng of DNA and 0.00383 Parasite equivalent/ 50 ng of DNA and 0.0341 Parasite equivalent/ 50 ng of DNA and 0.00725 Parasite equivalent/ 50 ng of DNA and 0.00351 Parasite equivalent/ 50 ng of DNA and 0.0145 Parasite equivalent/ 50 ng of DNA and 0.17 Parasite equivalent/ 50 ng of DNA | Parasite equivalent/ 50 ng of DNA of skeletal muscle (T. cruzi Brazil strain [8]; Fig. 3c, mice treated for 20 days): 0.30 Parasite equivalent/ 50 ng of DNA and 0.59 Parasite equivalent/ 50 ng of DNA and 0.42 Parasite equivalent/ 50 ng of DNA and 0.29 Parasite equivalent/ 50 ng of DNA and 0.40 Parasite equivalent/ 50 ng of DNA | inhibition of representative cytochrome P450 enzymes [9]: did not demonstrate significant inhibition | genotoxicity, in vitro micronucleus [10]: non-genotoxic

O=C(Nc1ccc2c(c1)B(O)OC2)c1ccc(F)cc1C(F)(F)F [AN4169]
IC50 [6, 12]: 350 nM | cure of infected mice (T. cruzi Brazil strain [2]; mice infected with the T. cruzi Brazil strain): 100% | rodent tolerability [11]: insufficient therapeutic margin
